# Legend:
# [1] = test system: peritoneal macrophages; test: Cytostatic activity of peritoneal macrophages against J558 myeloma cells; set-up: species or system mice; details: daily i.p. in vivo treatment
# Protocol: Peritoneal macrophage preparation and cytostatic test. […] The peritoneal macrophage population is enriched by adhesion on plastic plates followed by washing and aspiration of non-adherent cells. The percentage of macrophages among adherent cells is estimated by morphological criteria using Giemsa staining (>95%). Antitumor cytostatic activity of macrophages is determined by inhibition of DNA synthesis of target tumor cells (J558 myeloma cells). Briefly, macrophage-sensitive J558 cells (2×10^4/well) are co-cultured for 48 hours with and without macrophages (2×10^5/well) prepared from individual mice. To estimate DNA synthesis, the cells are pulsed with ^3H-thymidine (^3H-TdR) ([…]) during the last 6 hours of incubation. ^3H-TdR incorporation is determined using a liquid scintillation b-counter (Pharmacia Wallac, Finland). Results are expressed as percentage of inhibition of ^3H-TdR incorporation by J558 cells incubated with macrophages compared to ^3H-TdR incorporation by J558 cells incubated in medium alone.
# [2] = test system: 8226 cells; test: Fas-mediated apoptosis (Annexin V, flow cytometry) in 8226 cells; type: cell-based, human; details: IL-6-independent 8226 cells, AG490 treatment
# Protocol: For surface detection of the Fas receptor, 10^6 cells are suspended in […] PBS with 2.5 mg/ml mouse IgM (Sigma) and […] UB2 antibody (MBL) or IgG1, isotype control serum (Dako). Following 30 min incubation at room temperature, cells are washed with PBS, and incubated in the dark for 30 min with goat anti-mouse Ig-FITC. Fluorescence is measured on a FACScan flow cytometer and analyzed using CellQuest software (Becton Dickinson). For cell cycle analysis, 10^6 cells are fixed in ice-cold ethanol for a minimum of 2 h, washed with PBS, and stained with 5 mg/ml propidium iodide (PI) and […] at 37° C. for 30 min prior to analysis by flow cytometry. Sensitivity to Fas-mediated apoptosis is determined by exposing cells to 500 ng/ml agonistic antibody (CH-11, MBL) or 100 ng/ml Fas ligand (Alexis) for 18-24 h. Apoptosis is measured by staining with Annexin V-FITC (Clontech) and flow cytometry analysis. Fas-specific death is calculated as (% Annexin V positive cells in the CH-11 treated population)−(% Annexin V positive cells in the IgM control population). Programmed cell death in cells transfected with the bicistronic green fluorescent protein vectors (pIRES-EGFP or pIRES-Stat3b) is analyzed after staining with Annexin V-PE (Pharmingen) by two color flow cytometry analysis. […]
# [3] = set-up: species or system mice; details: mouse, in vivo
# Protocol: FIG. 7: AG490 Blocks Tumorigenicity of Breast Carcinoma Cells. Nude mice are engrafted with MDA-MB-468 tumor cells, and then treated with AG490 by mini-pump infusion (42 mpk) and daily intraperitoneal injections (50 mpk).
# AG490 is administered by continuous infusion using subcutaneous mini-pumps supplemented with intraperitoneal injections.
# [4] = test system: U266 cells; test: Fas-mediated apoptosis (Annexin V, flow cytometry) in U266 cells; type: cell-based, human
# Protocol: For surface detection of the Fas receptor, 10^6 cells are suspended in […] PBS with 2.5 mg/ml mouse IgM (Sigma) and […] UB2 antibody (MBL) or IgG1, isotype control serum (Dako). Following 30 min incubation at room temperature, cells are washed with PBS, and incubated in the dark for 30 min with goat anti-mouse Ig-FITC. Fluorescence is measured on a FACScan flow cytometer and analyzed using CellQuest software (Becton Dickinson). For cell cycle analysis, 10^6 cells are fixed in ice-cold ethanol for a minimum of 2 h, washed with PBS, and stained with 5 mg/ml propidium iodide (PI) and […] at 37° C. for 30 min prior to analysis by flow cytometry. […] Apoptosis is measured by staining with Annexin V-FITC (Clontech) and flow cytometry analysis. Fas-specific death is calculated as (% Annexin V positive cells in the CH-11 treated population)−(% Annexin V positive cells in the IgM control population). Programmed cell death in cells transfected with the bicistronic green fluorescent protein vectors (pIRES-EGFP or pIRES-Stat3b) is analyzed after staining with Annexin V-PE (Pharmingen) by two color flow cytometry analysis. Apoptotic morphology of DAPI-stained nuclei and green/red fluorescence is confirmed by fluorescence microscopy.
# [5] = test system: MDA-MB-468 cells; test: Cell growth of MDA-MB-468 breast carcinoma cells; type: cell-based, human
# Protocol: FIG. 6: Src and JAK Inhibitors Block Growth and STAT3 Activation in Breast Carcinoma Cells. MDA-MD-468 cells are treated with inhibitors of EGF receptor (PD158780), Src (PD180970), or JAKs (AG490), and effects on cell growth (Panel A) and STAT3 DNA-binding activity (Panel B) are determined.
# The involvement of these, and other, tyrosine kinases in STAT3 activation is tested using specific inhibitors of JAK family kinases, and the EGF receptor and Src family kinases.
smiles,measurement,setting,value
N#C/C(=C\c1ccc(O)c(O)c1)C(=O)NCc1ccccc1 [AG490],IL-12-induced cytostatic activity of peritoneal macrophages against target tumor cells,[1],does not influence
same,sensitivity to Fas-mediated cell death,[2],does not enhance
same,toxicity in animals,[3],not detectably toxic
same,Fas-specific apoptosis,"[4]; AG490 24 hours then CH-11 12 hours, 7 independent experiments",18-41%
same,cells undergoing apoptosis,[4]; AG490 24 hours then CH-11 additional 12 hours,up to 90%
same,cell growth,[5],inhibition of cell growth
